Laboratory results as given in US9750708B2 (The Regents of the University of California, priority 2006, dated 2017).
Each block holds one molecule with its values, some of them ahead of it.

Legend:
[1] = test system: mice with the gene mutation for Huntington's disease; settings: mouse, in vivo; cited from earlier work
[2] = test system: leukocyte cystine; settings: cited from earlier work
[3] = Plasma cysteamine after delivery of cysteamine through a nasoenteric tube into stomach, small intestine or cecum; format: in vivo; settings: human, 10 mg/kg/dose of base, Mean plasma cysteamine Cmax
Experimental: Adult control patients were recruited locally. […] None of the patients had undergone kidney transplantation. Baseline chemistry, Helicobacter pylori serologic study, complete blood count, and urinalysis were performed.
(§1) Immediately proximal to the balloon was an infusion port (1 mm diameter) through which the drug was delivered. […] On day 1 of the study, the nasoenteric tube was inserted into the stomach. By day 3 of the study the tube had passed into the proximal small intestine (SI) just distal to the ligament of Treitz (confirmed fluoroscopically). The balloon was then inflated, and peristalsis propelled the tube distally. Tube position within the cecum was confirmed fluoroscopically on day 5 (day 7 in 4 patients because of slow transit). If the tube had migrated too far, it was retracted into the desired location.
(§2) After an overnight fast (except for water) blood samples were taken at baseline and at varying intervals after intraluminal delivery of cysteamine. […] Gastrin was measured in picograms/mL with the Diagnostic Products Corporation (Los Angeles, Calif.) gastrin radioimmunoassay-assay kit. Leukocyte cystine levels were measured in nmol half-cystine per mg protein by the Cystine Determination Lab (La Jolla, Calif.).
Differences between means for the 3 sites were tested, plus group and group x site interaction effects for the combined groups. If a site effect was detected, Tukey's HSD was applied to determine which sites differed from each other.

[4] = Symptoms after intraluminal cysteamine delivery; format: in vivo, human; settings: cystinosis subject
Text: as §1
Only 2 patients (1 male, 1 female) with cystinosis reported regular GI symptoms before the study, and these had responded to acid-suppression therapy. […] No other symptoms were reported after any other cysteamine delivery in the children with cystinosis. There were no associated adverse events with tube placement or removal.

[5] = test system: gastrin; assay: Serum gastrin after intraluminal delivery of cysteamine (radioimmunoassay); format: in vivo, human
Text: as §1, §2
REML repeated measures analyses of variance were also performed as described above on gastrin levels. […] A 5% significance level was used without adjustment for all statistical testing.

[6] = test system: leukocyte cystine; assay: Leukocyte cystine levels after intraluminal delivery of cysteamine in patients with cystinosis; format: in vivo, human
Text: as §1, §2
AOC is computationally analogous to area under the curve, but it is applied when values are predominantly decreasing below baseline values. Large AOC values reflect large decreases, and a negative AOC reflects a net increase in value. Main effects for site of delivery, time after delivery, and the interaction between site and time were tested, except just the site effect was tested for AOCs. In the absence of significant interaction when a main effect was detected, Tukey's honestly significant difference test (HSD) was applied to identify where differences occurred within a 5% family wise error rate. The Tukey HSD procedure controls for overall significance level when performing all pairwise comparisons.

[7] = children with cystinosis; cited from earlier work

SMILES: NCCSSCCN [Cystamine, cystamine]
Effect in mice with the gene mutation for Huntington's disease [1]: alleviate tremors and prolong life

Cmax ([3]; other: infused through nasoenteric tube into cecum, combined cystinosis and control subjects, delivery into cecum): 22.5 µM
Cmax ([3]; other: infused through nasoenteric tube into cecum, control subjects, delivery into cecum): 23.1 µM
Cmax ([3]; other: infused through nasoenteric tube into cecum, cystinosis subjects, delivery into cecum): 21.9 µM
Cmax ([3]; other: infused through nasoenteric tube into small intestine, combined cystinosis and control subjects, delivery into small intestine): 53.2 µM
Cmax ([3]; other: infused through nasoenteric tube into small intestine, control subjects, delivery into small intestine): 51.1 µM
Cmax ([3]; other: infused through nasoenteric tube into small intestine, cystinosis subjects, delivery into small intestine): 55.8 µM
Cmax ([3]; other: infused through nasoenteric tube into stomach, combined cystinosis and control subjects, delivery into stomach): 37.8 µM
Cmax ([3]; other: infused through nasoenteric tube into stomach, control subjects, delivery into stomach): 39.5 µM
Cmax ([3]; other: infused through nasoenteric tube into stomach, cystinosis subjects, delivery into stomach): 35.5 µM
Symptoms after infusion into the proximal small intestine [4]: did not have any symptoms
Gastrin level after gastric cysteamine ([5]; 1 child with severe GI symptoms, 30 minutes after gastric delivery, baseline 70 pg/mL): 121 pg/mL
Gastrin levels, baseline and post-cysteamine (undetectable) ([5]; control group, more than half of the levels, any delivery site): < 25 pg/mL
SMILES: NCCS [cysteamine]
Period of activity ([2]; oral Cystagon capsules): 5 to 6 h
Time leukocyte cystine level remained suppressed ([2]; single dose administered intravenously): more than 24 hours
Depletion of intracellular cystine ([2]; taken regularly, measured in circulating white blood cells): up to 90%
Symptoms after intragastric cysteamine ([4]; about 15 minutes after delivery): severe retching and emesis
Time leukocyte cystine levels remained at the 1-hour level ([6]; after delivery, at 48 hours not returned to pre-cysteamine level): 24 h
Time leukocyte cystine levels remained below pre-delivery levels ([6]; single dose of cysteamine into the small intestine (FIG. 3)): up to 12 hours
Decrease in leukocyte cystine after cysteamine delivery ([6]; within an hour of delivery): dramatic decrease in leukocyte cystine

SMILES: COc1ccc2c(c1)c(CC(=O)O)c(C)n2C(=O)c1ccc(Cl)cc1 [indomethacin]
Reduction of urine volume and liquid consumption [7]: about 30%
